{"source": "patent US20100068743A1", "about": "“Method for predicting response of cancer patient to anticancer drug treatment” (John Wayne Cancer Institute and Sysmex Corporation, priority 2008, published 2010)", "key": {"[1]": {"system": "malignant tumors of breast cancer patients", "experiment": "Pathological complete response (pCR) attained by chemotherapy in breast cancer patients", "type": "in vivo, human", "conditions": "individual breast cancer patient, after chemotherapy regimen; 1 = pathological complete response", "method": "For breast cancer patients listed in Table 3 shown below, CDK1 expression level, CDK1 active value, CDK2 expression level, CDK2 active value of malignant tumors collected by needle biopsy before receiving chemotherapy are measured, and CDK1 specific activity and CDK2 specific activity are obtained. Further for each of patients shown in Table 3, whether or not pathological complete response (pCR) has been attained by the chemotherapy is shown in Table 3. In the column “pCR” in Table 3, “1” denotes pathological complete response."}, "[2]": {"system": "tumor tissue of breast cancer patients", "experiment": "Reduction rate of tumor after chemotherapy (tumor size before and after) in breast cancer patients", "type": "in vivo, human", "conditions": "individual breast cancer patient, after receiving the chemotherapy prescribed in the regimen", "method": "Next, CDK1 expression level, CDK1 active value, CDK2 expression level, CDK2 active value of malignant tumors collected by needle biopsy from breast cancer patients before receiving chemotherapy are measured, and CDK1 specific activity and CDK2 specific activity are obtained. Meanwhile, the reduction rate of tumor is obtained by measuring a size of tumor tissue of each patient before and after the chemotherapy. In Table 1, CDK1 SA denotes CDK1 specific activity, CDK2SA denotes CDK2 specific activity, […] denotes cell cycle profile score, and reduction rate of tumor denotes reduction rate of tumors after receiving the chemotherapy prescribed in the regimen. In the column of the regimen, “wT” means paclitaxel, “FEC” means fluorouracil, cyclophosphamide, epirubicin, “CE” means cyclophosphamide, epirubicin, “Doce” means docetaxel, “ZL” means zoladex, “TM” means tamoxifen, and “UFT” means uracil, tegafur."}}}
{"smiles": "CC(=O)O[C@H]1C(=O)[C@@]2(C)[C@H]([C@H](OC(=O)c3ccccc3)[C@]3(O)C[C@H](OC(=O)[C@H](O)[C@@H](NC(=O)c4ccccc4)c4ccccc4)C(C)=C1C3(C)C)[C@]1(OC(C)=O)CO[C@@H]1C[C@@H]2O", "note": "[wT, paclitaxel]", "values": [{"measurement": "pCR", "setting": "[1]", "value": 0}, {"measurement": "Reduction rate of tumor", "setting": "[2]", "value": 70, "unit": "%"}]}
